Common to all, as to test: NCI tumour cell line growth inhibition, 48 h
Test [1] relates to RPMI-8226 leukemia.
In test [2] the test system is HCT-15 colon.
Test [3] deals with HS 578T breast.
Test [4] has as its system UACC-257 melanoma.
Test [5] relates to K-562 leukemia.
In test [6] the test system is A498 renal.
The test system of test [7] is A549 NSCLC.
Test [8] deals with NCI-H226 lung.
For test [9], the system named is HCT-116 colon.
Test [10] deals with SK-MEL-5 melanoma.

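Values below derive from 48-hour exposures of cells grown in 96-well plates, with endpoints linearly interpolated between the two concentrations bracketing the appropriate inhibition level. The concentration for 50% growth inhibition is given as GI50. The concentration for full growth arrest is given as TGI.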

`COC(=O)c1c(-c2cccs2)oc(-c2cccs2)c1C(=O)OC`: the GI50 is 13.1 µM in test [1]; 27.5 µM in [2]; 35.8 µM in [3]; 40.3 µM in test [4]; 44.9 µM in test [5]; 31.8 µM in test [6]. The values for the GI50 in test [7], in test [8] and in [9] were 39.1 µM, 38.2 µM and 30.3 µM, respectively. For the same compound, the TGI in test [1] was 92.7 µM; in test [2], above 100 µM; in [3], above 100 µM; in [4] it was above 95.3 µM; in [5] it was above 100 µM; in [6], 94.4 µM. Further, the TGI in test [7] is above 100 µM; in test [8] it was 98.3 µM; in test [9], above 100 µM.

Regarding `CCOC(=O)/C(=C/c1cccc(Cl)c1)N(CC)CC`, the TGI in [1], in test [2], in test [10], in test [4], in [5] and in test [6] was above 100 µM in each case. The TGI in test [7], in test [8] and in test [9] was above 100 µM throughout.

As for `[N-]=[N+]=NCC(O)Cn1cnc2c(NC(=O)c3ccccc3)ncnc21` (stereo not given), the TGI in test [1], in test [2], in test [10], in [4], in [5] and in [6] was above 100 µM each time. In addition, the TGI in test [7], in test [8] and in [9] was above 100 µM each time.

As to `CCC(C)CC(C)CC(C)/C=C(\C)C1=C(C)CC(C)(O)O1` (stereo not given), the TGI was 90.7 µM in [1]; above 100 µM in test [2]; above 100 µM in [10]; above 100 µM in test [4]; above 100 µM in test [5]; above 100 µM in test [6]. Besides, the TGI in test [7], in test [8] and in test [9] was above 100 µM throughout.

For the compound `COC1=CC(C2c3cc4c(cc3[C@@H](Nc3ccc(F)cc3)C3COC(=O)[C@H]23)OCO4)=CC(=O)C1=O` (stereo not given in full), the TGI was above 100 µM in test [1]; 26.9 µM in test [2]; above 43.5 µM in [10]; above 63.9 µM in test [4]; above 49.2 µM in test [5]; 16 µM in test [6]. Further, the TGI in test [7] worked out at 20.4 µM; in [8], 39.3 µM; in [9], 30.5 µM.

With `CCCOC(=O)c1c(C)n(C)c2scc[n+]12`, the GI50 is above 100 µM in test [2]; 19.8 µM in test [3]; 49.1 µM in [10]; 40.8 µM in [4]; 21 µM in test [5]; 24 µM in test [6]. Further, the GI50 in test [8] is 62.3 µM; in test [9] it was 35.8 µM. Moreover, the TGI in [2] is above 100 µM; in [3], 74 µM; in [10] it was above 100 µM; in test [4], above 100 µM; in test [5], above 100 µM; in test [6], 71.9 µM. Further, the TGI in test [8] and in [9] was above 100 µM in each case.

In the case of `COc1ccccc1NC(=O)C1=C(C)NC(C)=C(C(=O)Nc2ccccc2OC)C1/C=C/c1ccccc1`, the TGI in [1], in test [2], in test [10], in [4], in test [5] and in test [6] was above 100 µM each time. The TGI in test [7], in test [8] and in [9] was above 100 µM each time.

In the case of `Cn1cc(C2=C(c3c[nH]c4ccccc34)C(=O)NC2=O)c2ccccc21`, the GI50 in test [1] was 1.57 µM; in test [2], 1.12 µM; in test [3], 0.151 µM; in test [10], 0.859 µM; in [5], 0.704 µM; in [6], 0.169 µM. Further, the GI50 was 1.66 µM in test [7], 1.99 µM in test [8] and 1.51 µM in [9]. For the same compound, the TGI was above 20.8 µM in test [1]; above 25 µM in [2]; above 25 µM in test [3]; 3.1 µM in test [10]; above 25 µM in test [5]; 0.755 µM in test [6]. The TGI in test [7], in test [8] and in test [9] was above 25 µM each time.

In the case of `CCCCCCCCCCCCC(O)c1ccco1` (stereo not given), the GI50 in [1] is 21 µM; in test [2], 19.2 µM; in [3] it was 16.2 µM; in test [10], 14.8 µM; in test [4], 22.6 µM; in test [5] it was 29.1 µM. In addition, the GI50 in test [7] was 25.5 µM; in test [8] it was 20.8 µM; in test [9], 22.2 µM. Besides, the TGI in [1] was 49.2 µM; in [2] it was 36 µM; in test [3], 35.7 µM; in test [10], 28.2 µM; in test [4], 39.4 µM; in [5], 48 µM. Besides, the TGI in test [7] was 48.1 µM; in test [8], 37.9 µM; in test [9], 52.1 µM.

For `Cc1ccc(NC(=O)C(=O)CC(=O)c2c(C)n([O-])c3ccccc3[n+]2=O)cc1C`, the TGI in test [1], in test [2], in test [10], in [4], in test [5] and in [6] was above 100 µM throughout. In addition, the TGI in [7], in test [8] and in test [9] was above 100 µM in each case.

Turning to `CC(C)c1cccc(C(C)C)c1N1C(=O)C(=O)C(c2nc3ccccc3o2)C(=O)C1=O`, the TGI in [1], in test [2], in test [10], in test [4], in [5] and in test [6] was above 100 µM each time. In addition, the TGI in [7], in test [8] and in test [9] was above 100 µM each time.

`O=C1CSC(c2ccccc2Cl)N1c1nnc(Cn2cnnc2)o1` (stereo not given): the GI50 in [1] was 5.77 µM; in test [2] it was 4.47 µM; in test [3] it was 8.62 µM; in test [10], 7.81 µM; in [5], 3.33 µM; in test [6] it was 12.3 µM. Also, the GI50 was 18 µM in test [7], 17.3 µM in test [8] and 4.09 µM in test [9]. The TGI in test [1] stood at 95.5 µM; in [2], 18.2 µM; in test [3] it was 60.9 µM; in test [10], 21.2 µM; in test [5], 16.2 µM; in [6] it was 52.7 µM. The results for the TGI in [7], in [8] and in test [9] were above 100 µM, 36.1 µM and 18.4 µM, respectively.

Take `COc1ccc(-c2ccc(/C=N/n3c(COc4ccccc4Cl)nn(CN4CCOCC4)c3=S)o2)c([N+](=O)[O-])c1`: the GI50 was 15.2 µM in test [1]; 28.2 µM in [2]; 33.9 µM in [3]; 18.2 µM in [5]; 27.4 µM in test [7]; 19.6 µM in test [9]. The TGI in test [1] is 42.1 µM; in [2] it was above 100 µM; in test [3], 90.4 µM; in [5], 41 µM; in [7] it was above 100 µM; in [9], 41.1 µM.

For the compound `CN=C1C=CC(=C(c2ccc(N(C)C)cc2)c2ccc(N(C)C)cc2)C=C1`, the GI50 was 0.0543 µM in test [1]; 0.367 µM in test [2]; 0.233 µM in test [3]; 0.182 µM in test [10]; 0.249 µM in test [4]; 0.0784 µM in test [5]. The GI50 is 0.193 µM in [6], 0.048 µM in [7] and 0.116 µM in [9]. The TGI stood at 0.255 µM in test [1]; 6.07 µM in [2]; 3.02 µM in test [3]; 0.364 µM in [10]; 0.797 µM in [4]; 1.1 µM in test [5]. Besides, the values for the TGI in [6], in test [7] and in test [9] were 0.734 µM, 1.38 µM and 1.09 µM, respectively.

As for `CC/C(Cc1ccccc1)=C(\c1ccc(OCCN2CCCC2)cc1)c1ccc(OC(=O)NCc2ccccc2)cc1`, the GI50 in test [1] is 2.25 µM; in [2], 1.58 µM; in test [3] it was 1.97 µM; in test [10], 1.71 µM; in test [4] it was 1.91 µM; in test [5] it was 1.7 µM. In addition, the GI50 was 1.88 µM in [7], 3.52 µM in [8] and 1.64 µM in test [9]. Further, the TGI in test [1] is 4.95 µM; in test [2] it was 3.07 µM; in test [3] it was 4.32 µM; in test [10] it was 3.11 µM; in test [4], 3.81 µM; in [5], 4.4 µM. Besides, the TGI in test [7] is 3.47 µM; in test [8], 14.2 µM; in test [9] it was 3 µM.

Consider `N#Cc1ccccc1NC(=O)C(=O)C1NC(=S)NC1=O` (stereo not given), for which the TGI in test [1], in test [2], in test [10], in [4], in test [5] and in test [6] was above 100 µM in each case. The TGI in [7], in test [8] and in test [9] was above 100 µM in each case.

With `O=C(CN(/C=C/C(=O)C(F)(F)F)c1ccc(Cl)cc1)c1ccc(Cl)c(Cl)c1`, the GI50 in test [1] was 3.74 µM; in [2] it was 4.24 µM; in [3] it was 16.6 µM; in [10] it was 5.33 µM; in test [4] it was 14 µM; in [6] it was 3.65 µM. Moreover, the GI50 in [7] was 7.09 µM; in test [8], 12.5 µM; in [9], 3.54 µM. Besides, the TGI in test [1] stood at 17 µM; in test [2] it was 17.2 µM; in test [3], 38.3 µM; in test [10] it was 20 µM; in [4], 30.2 µM; in test [6], 16.7 µM. In addition, the TGI in test [7] was 21.5 µM; in [8], 30.1 µM; in test [9] it was 13.2 µM.

Consider `CN1Cc2ccccc2/C=C\c2ccccc21`, for which the TGI was 68.7 µM in [1]; above 100 µM in [2]; above 100 µM in test [3]; above 100 µM in [10]; above 100 µM in test [4]; above 100 µM in [6]. The TGI in [7], in [8] and in test [9] was above 100 µM each time.

With `C/C(CN1C(=O)c2ccccc2C1=O)=N\NS(=O)(=O)c1cccc(C(=O)O)c1`, the TGI in test [1], in [2], in test [10], in test [4], in test [5] and in test [6] was above 100 µM each time. Also, the TGI in test [7], in test [8] and in test [9] was above 100 µM each time.

Consider `CCN(CC)CC1CCCCN1CC(=O)N1CC(C)C(=O)Nc2ccccc21` (stereo not given), for which the TGI in test [1], in [2], in test [10], in test [4], in [5] and in test [6] was above 100 µM each time. In addition, the TGI in test [7], in test [8] and in test [9] was above 100 µM each time.

For `CCCCCC(=O)Nc1nc2nc[nH]c2c(=O)[nH]1`, the TGI in test [1], in test [2], in test [10], in [4], in test [5] and in test [6] was above 100 µM each time. In addition, the TGI in test [7], in test [8] and in test [9] was above 100 µM each time.

As to `CC(C)N(Cc1ccc(CN(C(=O)CCl)C(C)C)cc1)C(=O)CCl`, the GI50 in test [1] was 2.06 µM; in test [2] it was 1.38 µM; in test [3] it was 2.75 µM; in test [10], 0.451 µM; in test [5] it was 2.28 µM; in [6], 1.9 µM. Also, the values for the GI50 in test [7], in [8] and in test [9] were 2.57 µM, 3.25 µM and 1.65 µM, respectively. Besides, the TGI in test [1] was 5.13 µM; in test [2], 3.64 µM; in test [3], 16.8 µM; in test [10], 1.81 µM; in [5] it was 18.3 µM; in test [6], 4.27 µM. Also, the TGI was determined as 7.37 µM in test [7], 9.44 µM in test [8] and 5.62 µM in test [9].

The values above are taken from PubChem BioAssay (NCI).
